Results from ChEMBL document CHEMBL3784977, “Acetylcholinesterase and carbonic anhydrase inhibitory properties of novel urea and sulfamide derivatives incorporating dopaminergic 2-aminotetralin scaffolds” (Bioorg Med Chem, 2016).
pIC50, pKi: −log10 of the molar value.

Legend:
Acetylcholinesterase [1] = target: T1, Acetylcholinesterase (Homo sapiens, UniProt P22303)
Description: Inhibition of AChE (unknown origin) using acetylcholine iodate as substrate preincubated for 10 mins followed by substrate addition by Ellman's method

Acetylcholinesterase [2] = target: T1, Acetylcholinesterase; remark: listed apart in the source
Description: Inhibition of AChE (unknown origin) using acetylcholine iodate as substrate preincubated for 10 mins followed by substrate addition by Lineweaver-Burk plot analysis

Acetylcholinesterase [3] = target: Acetylcholinesterase (Electrophorus electricus, UniProt O42275)
Acetylcholinesterase (Electrophorus electricus, UniProt O42275), sequence (O42275 whole entry): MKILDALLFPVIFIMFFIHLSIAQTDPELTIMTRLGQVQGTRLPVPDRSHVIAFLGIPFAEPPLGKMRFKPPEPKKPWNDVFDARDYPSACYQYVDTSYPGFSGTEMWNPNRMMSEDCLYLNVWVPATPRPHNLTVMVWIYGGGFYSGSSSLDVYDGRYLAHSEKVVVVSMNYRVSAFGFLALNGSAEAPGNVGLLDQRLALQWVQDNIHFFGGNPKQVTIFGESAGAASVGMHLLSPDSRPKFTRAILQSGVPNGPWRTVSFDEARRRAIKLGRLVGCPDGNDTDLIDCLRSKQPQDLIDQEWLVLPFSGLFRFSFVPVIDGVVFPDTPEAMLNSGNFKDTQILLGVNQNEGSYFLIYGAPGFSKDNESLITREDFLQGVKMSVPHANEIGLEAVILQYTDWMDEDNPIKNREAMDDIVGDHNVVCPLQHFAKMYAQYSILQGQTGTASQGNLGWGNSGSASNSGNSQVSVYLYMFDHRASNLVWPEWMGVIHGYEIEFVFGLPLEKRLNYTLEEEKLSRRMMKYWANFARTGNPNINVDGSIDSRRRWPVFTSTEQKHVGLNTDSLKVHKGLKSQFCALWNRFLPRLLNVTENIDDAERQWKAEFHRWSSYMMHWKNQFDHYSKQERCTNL
Description: Inhibition of electric eel AChE using acetylthiocholine iodide as substrate preincubated for 10 mins followed by substrate addition by Lineweaver-Burk plot analysis

T1 sequence (P22303 whole entry): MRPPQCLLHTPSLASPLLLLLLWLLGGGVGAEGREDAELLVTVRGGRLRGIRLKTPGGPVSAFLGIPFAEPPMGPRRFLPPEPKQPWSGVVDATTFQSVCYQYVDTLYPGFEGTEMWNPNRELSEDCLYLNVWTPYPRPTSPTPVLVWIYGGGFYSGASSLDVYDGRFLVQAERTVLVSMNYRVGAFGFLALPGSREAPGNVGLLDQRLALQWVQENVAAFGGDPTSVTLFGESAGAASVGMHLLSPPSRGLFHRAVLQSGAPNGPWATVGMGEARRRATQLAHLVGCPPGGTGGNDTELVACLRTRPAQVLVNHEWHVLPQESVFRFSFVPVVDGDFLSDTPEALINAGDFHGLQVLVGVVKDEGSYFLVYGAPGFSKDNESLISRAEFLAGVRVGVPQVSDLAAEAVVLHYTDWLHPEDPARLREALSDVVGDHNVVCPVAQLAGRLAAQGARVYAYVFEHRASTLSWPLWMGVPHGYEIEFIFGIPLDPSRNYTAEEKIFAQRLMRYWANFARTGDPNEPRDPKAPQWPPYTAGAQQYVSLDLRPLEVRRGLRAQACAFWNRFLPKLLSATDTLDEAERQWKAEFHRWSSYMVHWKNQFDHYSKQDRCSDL

Row | SMILES | pIC50 (Acetylcholinesterase [1]) | pKi (Acetylcholinesterase [2]) | pKi (Acetylcholinesterase [3])
1 | CN(C)C(=O)N[C@H]1CCc2ccc(O)cc2C1 | 6.99 | 8.76 | –
2 | CN(C)C(=O)NC1CCc2cc(O)ccc2C1 (stereo not drawn) | 8.15 | 8.88 | –
3 | CN(C)S(=O)(=O)N[C@H]1CCc2cc(O)ccc2C1 | 7.55 | 8.91 | –
4 | COc1ccc2c(c1)CC(NS(=O)(=O)N(C)C)CC2 (stereo not drawn) | 7.80 | 9.08 | –
5 | COc1ccc2c(c1)CCC(NC(=O)N(C)C)C2 (stereo not drawn) | 7.79 | 9.17 | –
6 | COc1cccc2c1CC[C@H](NC(=O)N(C)C)C2 | 7.70 | 9.01 | –
7 | CN(C)S(=O)(=O)NC1CCc2ccc(O)cc2C1 (stereo not drawn) | 7.43 | 9.14 | –
8 | CN(C)S(=O)(=O)NC1CCc2c(O)cccc2C1 (stereo not drawn) | 7.51 | 8.87 | –
9 | CN(C)C(=O)N[C@H]1CCc2c(O)cccc2C1 | 6.88 | 8.80 | –
10 | COc1ccc2c(c1)CCC(NS(=O)(=O)N(C)C)C2 (stereo not drawn) | 7.77 | 8.98 | –
11 | COc1ccc2c(c1)C[C@@H](NC(=O)N(C)C)CC2 | 7.65 | 8.97 | –
12 | Oc1ccc(O)cc1 [HYDROQUINONE] | – | – | 8.91
